The values below come from US7365069B2, “Pyrimidone derivatives” (Bexel Pharmaceuticals Inc., priority 2002, dated 2008).

For one data set, the target named is T1, COX-2 (Homo sapiens, UniProt P35354).
T1 construct: incubation of human blood with lipopolysaccharide (LPS), which induces COX-2 production in the blood; endogenous in cells; host or cells: fresh human whole blood from volunteers, treated with aspirin and then LPS
T1 sequence (P35354 18-604): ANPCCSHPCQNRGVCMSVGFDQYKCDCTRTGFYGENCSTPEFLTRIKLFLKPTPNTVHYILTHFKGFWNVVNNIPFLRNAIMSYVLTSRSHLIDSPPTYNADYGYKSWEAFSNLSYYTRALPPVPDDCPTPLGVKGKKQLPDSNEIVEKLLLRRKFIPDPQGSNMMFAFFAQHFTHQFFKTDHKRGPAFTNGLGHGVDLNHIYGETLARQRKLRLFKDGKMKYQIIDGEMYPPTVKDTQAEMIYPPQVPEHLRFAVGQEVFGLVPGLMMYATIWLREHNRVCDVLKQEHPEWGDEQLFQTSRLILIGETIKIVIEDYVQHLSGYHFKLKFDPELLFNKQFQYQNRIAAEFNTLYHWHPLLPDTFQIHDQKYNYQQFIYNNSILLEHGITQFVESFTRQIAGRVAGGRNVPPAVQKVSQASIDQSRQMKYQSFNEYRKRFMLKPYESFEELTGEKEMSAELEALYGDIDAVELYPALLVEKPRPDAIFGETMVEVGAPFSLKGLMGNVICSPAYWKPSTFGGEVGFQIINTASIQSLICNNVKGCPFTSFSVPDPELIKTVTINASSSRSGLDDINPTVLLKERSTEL
The data set can be described thus: Human whole blood assay, COX-2 inhibition (PGE2 ELISA after LPS). It counts as cell-based. To be noted: LPS 24 h. The method, then: In Vivo Evaluation of Cyclooxygenase-2 (COX-2) Inhibition Activity
The COX-2 inhibition activities of the compounds illustrated in the examples are determined by the following method.
Human whole blood provides a protein and cell rich milieu appropriate for the study of biochemical efficacy of anti-inflammatory compounds such as selective COX-2 inhibitors. […] This is correlating with the observation that COX-2 inhibitors have no effect on prostaglandin E2 (PGE2) production in normal blood. These inhibitors are active only after incubation of human blood with lipopolysaccharide (LPS), which induces COX-2 production in the blood.
Fresh blood is collected in tubes containing potassium EDTA by vein puncture from make volunteers. The subjects should have no apparent inflammatory conditions and not taken NSAIDs for at least 7 days prior to blood collection. Blood is treated with aspirin in vitro (10 μg/ml, at time zero) to inactivate COX-1, and then with LPS (10 μg/ml) along with test agents or vehicle. The blood is incubated for 24 h at 37° C., after which the tubes are centrifuged, the plasma is separated and stored at −80° C. (J. Pharmacol. Exp. Ther, 271, 1705, 1994; Proc. Natl. Acad. Sci. USA., 96, 7563, 1999). The plasma is assayed for PGE2 using Cayman ELISA kit as per the procedure outlined by the manufacturer (Cayman Chemicals, Ann Arbor, USA).

The test system of the next data set is TNF-α. Description: TNF-α production in LPS-stimulated human whole blood. It counts as cell-based. Particulars: LPS 4 h. As for the experimental part: Tumor Necrosis Factor Alpha (TNF-α)
This assay determines the effect of test compounds on the production of TNF-α in human whole blood. TNF-α assay is carried out as described by Armin hatzelmann and Christian Schudt (J Pharm Exp Ther 297, 261, 2001). Compounds are tested for their ability to inhibit the activity of TNF-α in human whole blood. The test compounds are pre-incubated for 15 minutes at 37° C. and then stimulated with Lipopolysaccharide (Salmonella abortus equi, 1 μg/ml) for 4 h at 37° C. in 5% CO2. The levels of TNF-α are estimated using Enzyme linked Immunosorbent assay performed in a 96 well format as per the procedure of the manufacturer (Cayman Chemical, Ann Arbor, USA).

For the next data set, the system named is NCI-H460. The data set can be described thus: DTP human tumor cell line one-dose prescreen, NCI-H460. Format: cell-based. Particulars: 48 hours, Alamar Blue, test/control, read-out: Percentage growth Lung NCI-H460. As for the experimental part: (§1) DTP Human Tumor Cell Line Screen
(§2) Methodology of the In Vitro Cancer Screen
(§3) The current assay utilizes a 384 well plate format and fluorescent staining technologies resulting in greater screening capacity for testing of synthetic samples.
(§4) The cell lines of the cancer-screening panel are grown in RPMI 1640 medium containing 5% fetal bovine serum and 2 mM L-glutamine. For a typical screening experiment, cells are inoculated into 96 well microtiter plates in 100 μL. After cell inoculation, the microtiter plates are incubated at 37° C., 5% CO2, 95% air and 100% relative humidity for 24 h prior to addition of experimental drugs. The cells are plated a densities of 5000 cells/well (MCF7), 1000 cells/well (NC1—H460), and 7500 cells/well (SF-268) to allow for varying doubling time of the cell lines. Each plate contains all three cell lines, a series of dilutions of standard agents, total kill wells and appropriate controls. Plates are incubated under standard conditions for 24 hours prior to addition of experimental compounds or extracts.
(§5) Addition of Experimental Agents (Pure Compounds)
(§6) Experimental compounds are solubilized in dimethyl sulfoxide (DMSO) at 400-times the desired maximum test concentration (maximum final DMSO concentration of 0.25%) and stored frozen. Compounds are then diluted with complete media with 0.1% gentamicin sulfate (5 μl of test sample in 100% DMSO is added to 565 μl of complete medium). 20 μl of this solution is then dispensed into test wells containing 50 μl of cell suspension to yield a test concentration of 1.00E-04M.
(§7) Two standard drugs, meaning that their activities against the cell lines are well documented, are tested against each cell line: NSC 19893 (5-FU) and NSC 123127 (Adriamycin).
(§8) After compound addition, plates are incubated at standard conditions for 48 hours, 10 μl/well Alamar Blue is added and the plates are incubated for an additional 4 hours. Fluorescence is measured using an excitation wavelength of 530 nm and an emission wavelength of 590 nm.
(§9) Calculation of Percent Test Cell Growth/Control (Untreated) Cell Growth (T/C)
(§10) Percent growth is calculated on a plate-by-plate basis for test wells relative to control wells. Percent Growth is expressed as the ratio of fluorescence of the test well to the average fluorescence of the control wells x 100.

Another data set relates to MCF-7. Description: DTP human tumor cell line one-dose prescreen, MCF-7. Format: cell-based. To be noted: MCF7, 48 hours, Alamar Blue, test/control, read-out: Percentage growth Breast MCF-7. As for the experimental part:
as §1, §2, §3, §4, §5, §6, §7, §8, §9, §10

The subject of the next data set is IL-6. Description: IL-6 production in LPS-stimulated human whole blood. Format: cell-based. Particulars: LPS 4 h. The method, then:
This assay determines the effect of test compounds on the production of IL-6 from human whole blood. Compounds are tested for their ability to downregulate the production of IL-6 in activated whole blood. The test compounds are pre-incubated for 15 minutes at 37° C. and then stimulated with Lipopolysaccharide (Salmonella abortus equi, 1 μg/ml) for 4 h at 37° C. in 5% CO2. The levels of Interleukin-6 are estimated using Enzyme linked Immunosorbent assay performed in a 96 well format as per the procedure of the manufacturer (Cayman Chemical, Ann Arbor, USA).

The next data set has as its system SF-268. The data set can be described thus: DTP human tumor cell line one-dose prescreen, SF-268. Particulars: 48 hours, Alamar Blue, test/control, read-out: Percentage growth CNS SF-268. It counts as cell-based. The method, then: as §1, §2, §3, §4, §5, §6, §7, §8, §9, §10
Background: The colour change of resazurin is a common sign of viable cells or microbes.

The subject of a further data set is Male Wistar rats. The data set can be described thus: Rat carrageenan paw edema test. To be noted: 5 mg/kg body weight, oral, paw volume 3 hours after carrageenan, read-out: Rat Paw Edema model % inhibition. It counts as in vivo. The method, then:
Rat Carrageenan Paw Edema Test
The carrageenan paw edema test is performed as described by Winter et al (Proc. Soc. Exp. Biol. Med, 111, 544, 1962). Male Wistar rats are selected and the body weights are equivalent within each group. The rats are fasted for eighteen hours with free access to water. The rats are dosed orally with the test compound suspended in vehicle containing 0.5% methylcellulose. The control rats are administered the vehicle alone. After an hour, the rats are injected with 0.1 ml of 1% Carrageenan solution in 0.9% saline into the sub-plantar surface of the right hind paw. Paw volume is measured using water plethysmograph before and after 3 hours of carrageenan injection. The average of foot swelling in drug treated animals is compared with that of control animals. Anti-inflammatory activity is expressed as the percentage inhibition of edema compared with control group [Arzneim-Forsch/Drug Res., 43(I), 1, 44-50,1993; Ottemess and Bliven, Laboratory Models for Testing NSAIDs, In Non-Steroidal Anti-Inflammatory Drugs, (J. Lombardino, ed. 1985)]. In order to evaluate their role on the ulcer formation, the animals are sacrificed and the stomach is taken out and flushed with 1% formalin. The stomach is opened along the greater curvature. The haemorrhagic puncta and sulci are identified microscopically and images are captured. The stomach lesions are calculated.
(In the carrageenan paw model, swelling and tenderness develop within hours.)

The structures appear in SMILES notation.

A word on the inhibition: it is the change of the read-out against control, counted positive when it falls. High values mean a strong effect, low ones a weak effect. In general, melting point refers to the temperature of the solid-liquid transition. On to `CSc1ccc(-n2c(-c3ccc(C)cc3)nc(SC)c(C#N)c2=O)cc1` [Example 20, 5-cyano-2-(4-methylphenyl)-4-(methylthio)-1-[4-(methylthio)phenyl]-6-oxo-1,6-dihydropyrimidine], for which the melting point was 230 to 233 °C. This molecule also showed an inhibition at 0.25 µM at COX-2 of 7.67%. In the data set on TNF-α, the inhibition at 1 µM amounted to 61.4%.

For `COc1ccc(-n2c(-c3ccc(SC)cc3)nc(SC)c(C#N)c2=O)cc1` [Example 16, 5-cyano-1-(4-methoxyphenyl)-4-(methylthio)-2-[4-(methylthio)phenyl]-6-oxo-1,6-dihydropyrimidine], the melting point lay in the range of 214 to 216 °C. The activity at 100 µM in the data set with NCI-H460 stood at 95%. In the data set on MCF-7, the activity at 100 µM was 90%. The molecule further gave an inhibition at 10 µM in the data set with TNF-α of 59.8%.

Regarding `CNc1nc(-c2ccc(SC)cc2)n(-c2ccc(C)cc2)c(=O)c1C#N` [Example 54, 5-cyano-4-(methylamino)-1-(4-methylphenyl)-2-[4-(methylthio)phenyl]-6-oxo-1,6-dihydropyrimidine], the melting point lay within 268 to 271 °C. In addition, 0.25 µM produced 72.1% inhibition on COX-2. The molecule further had an inhibition at 1 µM in the data set on TNF-α of 15.6%. In addition, testing at 1 µM in the data set on IL-6 (1 μM) gave an inhibition of 15.5%.

In turn, `CNc1nc(-c2ccc(SC)cc2)n(-c2ccc(C)c(C)c2)c(=O)c1C#N` [Example 55, 5-cyano-1-(3,4-dimethylphenyl)-4-(methylamino)-2-[4-(methylthio)phenyl]-6-oxo-1,6-dihydropyrimidine] had a melting point of 199 to 205 °C. Moreover, on COX-2, the inhibition at 1 µM is 8.2%. In the data set with TNF-α, this molecule yielded an inhibition at 1 µM of 54.4%.

In turn, `CSc1ccc(-n2c(-c3cccnc3)nc(SC)c(C#N)c2=O)cc1` [Example 27, 5-cyano-4-(methylthio)-1-[4-(methylthio)phenyl]-6-oxo-2-pyridin-3-yl-1,6-dihydropyrimidine] displayed a melting point of 212 to 215 °C. Besides, the activity at 100 µM in the data set with NCI-H460 came to 14%. Besides, the activity at 100 µM with MCF-7 is 23%. The activity at 100 µM in the data set on SF-268 was 51%.

For `CCOC(=O)c1c(SC)nc(-c2ccc(F)cc2)n(-c2ccc(SC)cc2)c1=O` [Example 43, ethyl 2-(4-fluorophenyl)-4-(methylthio)-1-[4-(methylthio)phenyl]-6-oxo-1,6-dihydropyrimidine-5-carboxylate], the melting point lay in the range of 166 to 169 °C. For the same molecule, the activity at 100 µM in the data set on NCI-H460 was found to be 79%. For the same molecule, at COX-2, the inhibition at 1 µM came out at 27.5%. Further, in the data set on MCF-7, the activity at 100 µM stood at 68%. Also, in the data set on TNF-α, the inhibition at 1 µM came out at 36.4%. In the data set with IL-6, this molecule came in with an inhibition at 0.25 µM of 10.4%.

With `CSc1nc(-c2ccccc2)n(-c2ccc(F)cc2)c(=O)c1C#N` [Example 17, 5-cyano-1-(4-fluorophenyl)-4-(methylthio)-2-phenyl-6-oxo-1,6-dihydropyrimidine], the melting point lay in the range of 204 to 205 °C. Further, 0.25 µM produced 16.2% inhibition against COX-2. This molecule also had an inhibition at 10 µM with TNF-α of 47.4%. At 0.25 µM the inhibition in the data set on IL-6 was 16.2%.

Take `CSc1nc(-c2ccc(S(C)(=O)=O)cc2)n(-c2ccc(C)c(C)c2)c(=O)c1C#N` [Example 12, 5-cyano-1-(3,4-dimethylphenyl)-2-[4-(methylsulfonyl)phenyl]-4-(methylthio)-6-oxo-1,6-dihydropyrimidine]: the melting point fell in the range of 245 to 247 °C. The inhibition at 0.25 µM at COX-2 worked out at 36.5%. The inhibition in vivo at 5 mg/kg in the data set on Male Wistar rats turned out to be 41.2%. In addition, the inhibition at 0.25 µM in the data set on TNF-α came to 27.2%. The inhibition at 0.25 µM in the data set with IL-6 stood at 28.7%.

Molecule `CSc1nc(-c2ccc(S(C)(=O)=O)cc2)n(-c2ccc(C(C)C)cc2)c(=O)c1C#N` [Example 11, 5-cyano-1-(4-isopropylphenyl)-2-[4-(methylsulfonyl)phenyl]-4-(methylthio)-6-oxo-1,6-dihydropyrimidine] came in with a melting point of 211 to 212 °C. Moreover, testing at 0.25 µM against COX-2 gave an inhibition of 31.1%. In the data set on Male Wistar rats, the inhibition in vivo at 5 mg/kg was 63.8%. This molecule also had an inhibition at 0.25 µM with TNF-α of 63.8%. 0.25 µM produced 70.8% inhibition in the data set on IL-6.

As for `CCOC(=O)c1c(SC)nc(-c2ccc(SC)cc2)n(-c2ccc(F)cc2)c1=O` [Example 42, ethyl 1-(4-fluorophenyl)-4-(methylthio)-2-[4-(methylthio)phenyl]-6-oxo-1,6-dihydropyrimidine-5-carboxylate], the melting point was 151 to 155 °C. On COX-2 (0.1 μM), this molecule gave an inhibition at 0.1 µM of 37.6%. In addition, testing at 0.1 µM in the data set on TNF-α (0.1 μM) gave an inhibition of 49.6%. In the data set with IL-6 (0.1 μM), this molecule displayed an inhibition at 0.1 µM of 59.7%.
